Common to all, as to assay: relative viability (nuclei count vs DMSO), 5 days (fraction); higher = more cells survive
Compound in the assay “XMD13-2 + Palbociclib”: C1CC1C(=O)NC2=NNC3=C2C=CC(=C3)C4=CC(=CC=C4)C(=O)NC5CC5 [XMD13-2] + CC(=O)c1c(C)c2cnc(Nc3ccc(N4CCNCC4)cn3)nc2n(C2CCCC2)c1=O [Palbociclib] (partner 0.5 µM)
A digest of the protocol:
(§1)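 Relative viability was taken as the ratio of nuclei in treated wells to nuclei in vehicle wells. Lung cancer cell lines in 1536-well plates received compounds by pin tool one day after seeding, either one drug alone or a fixed anchor-drug dose plus five library-drug doses (not always all listed) in √10 steps. Nuclei were counted on 4× images after 5 days of treatment, and values are medians of duplicate plates.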

Compound in the assay “ALW-II-49-7 + Phenformin”: Cc1ccc(C(=O)Nc2cccc(C(F)(F)F)c2)cc1Nc1cncc(C(N)=O)c1 [ALW-II-49-7] + N=C(N)NC(=N)NCCc1ccccc1 [Phenformin] (partner 250 µM)
A digest of the protocol: as §1

Compound in the assay “Dasatinib + Luminespib”: Cc1nc(Nc2ncc(C(=O)Nc3c(C)cccc3Cl)s2)cc(N2CCN(CCO)CC2)n1 [Dasatinib] + CCNC(=O)c1noc(-c2cc(C(C)C)c(O)cc2O)c1-c1ccc(CN2CCOCC2)cc1 [Luminespib] (partner 0.01 µM)
A digest of the protocol: as §1

Compound in the assay “Dasatinib + Pemetrexed”: Cc1nc(Nc2ncc(C(=O)Nc3c(C)cccc3Cl)s2)cc(N2CCN(CCO)CC2)n1 [Dasatinib] + Nc1nc2[nH]cc(CCc3ccc(C(=O)N[C@@H](CCC(=O)O)C(=O)O)cc3)c2c(=O)[nH]1 [Pemetrexed] (partner 0.2 µM)
A digest of the protocol:
as §1

As to HCC-827, the relative viability with XMD13-2 + Palbociclib (first compound 0.05 µM) was found to be 0.512; with XMD13-2 + Palbociclib (first compound 0.1581 µM), 0.462; in the assay with XMD13-2 + Palbociclib (first compound 0.5 µM), 0.439; with XMD13-2 + Palbociclib (first compound 1.581 µM) it was 0.459; in the assay with XMD13-2 + Palbociclib (first compound 5 µM) it was 0.377; with ALW-II-49-7 + Phenformin (first compound 0.08 µM), 0.403. For the same cell line, the relative viability in the assay with ALW-II-49-7 + Phenformin (first compound 0.253 µM) was 0.388; with ALW-II-49-7 + Phenformin (first compound 0.8 µM), 0.399; in the assay with ALW-II-49-7 + Phenformin (first compound 2.53 µM), 0.413; with ALW-II-49-7 + Phenformin (first compound 8 µM), 0.363; in the assay with Dasatinib + Luminespib (first compound 0.005 µM), 0.672; with Dasatinib + Luminespib (first compound 0.01581 µM) it was 0.409. The relative viability in the assay with Dasatinib + Luminespib (first compound 0.05 µM) turned out to be 0.335; in the assay with Dasatinib + Luminespib (first compound 0.1581 µM), 0.127; in the assay with Dasatinib + Luminespib (first compound 0.5 µM), 0.123; in the assay with Dasatinib + Pemetrexed (first compound 0.005 µM), 0.253; in the assay with Dasatinib + Pemetrexed (first compound 0.01581 µM) it was 0.251; with Dasatinib + Pemetrexed (first compound 0.05 µM) it was 0.256. Further, the relative viability amounted to 0.239 in the assay with Dasatinib + Pemetrexed (first compound 0.1581 µM) and 0.133 with Dasatinib + Pemetrexed (first compound 0.5 µM).

Turning to NCI-H650, the relative viability is 0.321 in the assay with XMD13-2 + Palbociclib (first compound 0.05 µM); 0.335 in the assay with XMD13-2 + Palbociclib (first compound 0.1581 µM); 0.33 in the assay with XMD13-2 + Palbociclib (first compound 0.5 µM); 0.305 with XMD13-2 + Palbociclib (first compound 1.581 µM); 0.31 in the assay with XMD13-2 + Palbociclib (first compound 5 µM); 0.519 with ALW-II-49-7 + Phenformin (first compound 0.08 µM). For the same cell line, the relative viability was found to be 0.481 in the assay with ALW-II-49-7 + Phenformin (first compound 0.253 µM); 0.396 with ALW-II-49-7 + Phenformin (first compound 0.8 µM); 0.449 with ALW-II-49-7 + Phenformin (first compound 2.53 µM); 0.334 in the assay with ALW-II-49-7 + Phenformin (first compound 8 µM); 0.771 with Dasatinib + Luminespib (first compound 0.005 µM); 0.777 with Dasatinib + Luminespib (first compound 0.01581 µM). For the same cell line, the relative viability in the assay with Dasatinib + Luminespib (first compound 0.05 µM) came to 0.852; with Dasatinib + Luminespib (first compound 0.1581 µM) it was 0.401; in the assay with Dasatinib + Luminespib (first compound 0.5 µM), 0.213; with Dasatinib + Pemetrexed (first compound 0.005 µM) it was 0.989; with Dasatinib + Pemetrexed (first compound 0.01581 µM) it was 0.932; in the assay with Dasatinib + Pemetrexed (first compound 0.05 µM), 0.818. Moreover, the figures for the relative viability with Dasatinib + Pemetrexed (first compound 0.1581 µM) and with Dasatinib + Pemetrexed (first compound 0.5 µM) were 0.66 and 0.418, respectively.

Consider BEN, for which the relative viability was 0.462 with XMD13-2 + Palbociclib (first compound 0.05 µM); 0.508 with XMD13-2 + Palbociclib (first compound 0.1581 µM); 0.492 with XMD13-2 + Palbociclib (first compound 0.5 µM); 0.489 in the assay with XMD13-2 + Palbociclib (first compound 1.581 µM); 0.468 with XMD13-2 + Palbociclib (first compound 5 µM); 0.33 with ALW-II-49-7 + Phenformin (first compound 0.08 µM). In addition, the relative viability in the assay with ALW-II-49-7 + Phenformin (first compound 0.253 µM) stood at 0.264; with ALW-II-49-7 + Phenformin (first compound 0.8 µM) it was 0.25; with ALW-II-49-7 + Phenformin (first compound 2.53 µM) it was 0.233; in the assay with ALW-II-49-7 + Phenformin (first compound 8 µM), 0.287; in the assay with Dasatinib + Luminespib (first compound 0.005 µM) it was 0.439; in the assay with Dasatinib + Luminespib (first compound 0.01581 µM), 0.547. The relative viability in the assay with Dasatinib + Luminespib (first compound 0.05 µM) was determined as 0.266; with Dasatinib + Luminespib (first compound 0.1581 µM), 0.2; in the assay with Dasatinib + Luminespib (first compound 0.5 µM), 0.269; in the assay with Dasatinib + Pemetrexed (first compound 0.005 µM) it was 0.596; with Dasatinib + Pemetrexed (first compound 0.01581 µM) it was 0.572; with Dasatinib + Pemetrexed (first compound 0.05 µM), 0.511. Also, the relative viability was found to be 0.478 with Dasatinib + Pemetrexed (first compound 0.1581 µM) and 0.448 in the assay with Dasatinib + Pemetrexed (first compound 0.5 µM).

Turning to ChaGo-K-1, the relative viability with XMD13-2 + Palbociclib (first compound 0.05 µM) was 0.923; with XMD13-2 + Palbociclib (first compound 0.1581 µM), 0.897; with XMD13-2 + Palbociclib (first compound 0.5 µM), 0.958; with XMD13-2 + Palbociclib (first compound 1.581 µM), 0.92; with XMD13-2 + Palbociclib (first compound 5 µM), 0.795; with ALW-II-49-7 + Phenformin (first compound 0.08 µM), 0.48. The relative viability in the assay with ALW-II-49-7 + Phenformin (first compound 0.253 µM) was 0.584; with ALW-II-49-7 + Phenformin (first compound 0.8 µM) it was 0.465; in the assay with ALW-II-49-7 + Phenformin (first compound 2.53 µM) it was 0.46; with ALW-II-49-7 + Phenformin (first compound 8 µM), 0.401; with Dasatinib + Luminespib (first compound 0.005 µM), 0.555; with Dasatinib + Luminespib (first compound 0.01581 µM) it was 0.543. For the same cell line, the relative viability in the assay with Dasatinib + Luminespib (first compound 0.05 µM) was found to be 0.591; with Dasatinib + Luminespib (first compound 0.1581 µM), 0.486; in the assay with Dasatinib + Luminespib (first compound 0.5 µM), 0.366; in the assay with Dasatinib + Pemetrexed (first compound 0.005 µM), 0.256; in the assay with Dasatinib + Pemetrexed (first compound 0.01581 µM), 0.255; with Dasatinib + Pemetrexed (first compound 0.05 µM), 0.254. Moreover, the relative viability in the assay with Dasatinib + Pemetrexed (first compound 0.1581 µM) came to 0.244; with Dasatinib + Pemetrexed (first compound 0.5 µM) it was 0.235.

Source of the values: the supplement of paper PMC10307832.
